Reference: patent US9382230B2, “Methods and compositions for modulating Ire1, SRC and ABL activity” (The Regents of the University of California, priority 2008, dated 2016)

Tests used:
[1] = biological target: T1, Ire1KR32 (Saccharomyces cerevisiae, UniProt P32361); test: RNase cleavage assay with Ire1 cytosolic constructs (Ire1KR32), co-factors and kinase inhibitors; type: biochemical
T1 construct: Overview of the Ire1 constructs; GST (N); made in house; host or cells: E. coli BL21 CodonPlus (RIPL)
T1 sequence (P32361 with tags, fused parts or gaps): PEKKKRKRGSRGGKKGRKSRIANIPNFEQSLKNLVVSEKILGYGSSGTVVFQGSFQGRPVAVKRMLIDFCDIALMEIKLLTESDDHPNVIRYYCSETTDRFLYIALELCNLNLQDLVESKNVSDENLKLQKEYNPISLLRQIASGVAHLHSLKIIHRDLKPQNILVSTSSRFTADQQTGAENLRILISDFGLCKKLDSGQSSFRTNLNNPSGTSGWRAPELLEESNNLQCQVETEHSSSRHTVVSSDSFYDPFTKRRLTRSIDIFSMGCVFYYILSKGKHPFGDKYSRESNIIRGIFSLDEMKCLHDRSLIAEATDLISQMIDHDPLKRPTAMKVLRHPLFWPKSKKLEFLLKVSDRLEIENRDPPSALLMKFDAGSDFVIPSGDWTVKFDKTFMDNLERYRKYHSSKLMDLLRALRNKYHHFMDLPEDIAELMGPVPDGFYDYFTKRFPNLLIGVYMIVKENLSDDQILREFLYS
Method: (§1) RNA cleavage reactions were conducted at 30° C. in buffer containing 20 mM HEPES (pH 7.5), 70 mM NaCl, 2 mM ADP (pH 7.0), 2 mM Mg(OAc)2, 5 mM DTT, 5% glycerol, less than 1 nM ^32p-labeled RNA substrate, and 3 nM-20 μM Ire1. Reaction solutions and buffers were designed using Biochem Lab Solutions 3.5. Reactions were prepared such that 1 μl of RNA was added to 9 μl of pre-warmed reaction mixture containing all components except RNA. Typically, 3-10 minute time courses were collected starting from 5 seconds for the first time point. At time intervals, 1 μl of solution was withdrawn from each reaction and mixed wish 6 μl stop solution containing 10 M urea, 0.1% SDS, 0.1 mM EDTA, 0.05% xylene cyanol, and 0.05% bromophenol blue. The samples were separated by a denaturing 10% PAGE and exposed on a phosphor storage screen. The screens were scanned on a Storm or a Typhoon instrument and quantified using ImageQuant 5.0 or GelQuant.NET 1.4 programs. The data were plotted and fit in SigmaPlot 6.0.
Variants of the cytosolic portion of Ire1 that contain the kinase and the RNase domains (Ire1KR) and Ire1KR extended by 24 (Ire1KR24) or 32 (Ire1KR32) amino acids towards the N-terminus (FIG. 1A, FIG. 1C, FIG. 7) were prepared. These additional amino acid extensions are part of a ˜100 amino acid-long linker domain that tethers the kinase/RNase domains to the transmembrane domain. All three constructs cleaved site-specifically 5′-32p-labeled stem-loop oligoribonucleotides 14 derived from the XBP1 mRNA (FIG. 1B, FIG. 8). […] No ADP.Mg co-factor was required for the cooperative activation of the RNase.
Ire1KR32 was co-crystallized with inhibitors that were designed to target CDK2 and EGFR kinases. Certain kinase inhibitors fully activated the RNase function of Ire1 (FIG. 3A). This is the first example of wild-type Ire1 activation by synthetic compounds.
Crystals obtained with the inhibitor APY29 allowed the structure determination of the Ire1KR32-APY29 complex at 3.9 Å resolution. A well-resolved density for the inhibitor molecule was found in the ATP binding pocket of the Ire1 kinase domain (FIG. 3B). APY29 forms an extensive hydrogen-bonding network with the protein backbone formed by E746, L747, and C748 (FIG. 3C). Hydrogen bonds are likely to also form with two side chains at the active site, N751, and D828. […] Manual fitting of sunitinib guided by know structures of kinase.inhibitor complexes (e.g., PDB IDs 2G9X and 2F4J) predicts that the compound fills the nucleobase site, but not the sugar and the phosphate sub-sites. […] AIN54 could not be readily fit to the ATP pocket due to steric clashes arising partly because of the unusual position of beta strand β1 that covers the nucleotide-binding pocket of the Ire1 kinase.
This structural difference provides an excellent tool to test the role of magnesium in the RNase activity of Ire1. Accordingly, the effect of EDTA on the RNase activity of Ire1KR32 was examined.

[2] = system: Xbp-1 mRNA splicing (UPR activation through Ire1) in HEK293 cells; test: XBP-1 mRNA splicing by RT-PCR in HEK293 cells (UPR); type: cell-based, mammalian; conditions: for % splicing mRNA XBP-I Average: Hek293 cells treated for 4 hrs, RT-PCR; for in vivo activation of Ire1: summary statement
Method: The effect of tunicamycin, SU11248, DJM2005, APY24, and APY29 on Ire1 activity was tested in mammalian cells using HEK293 cells as a model system. Cells were treated according to the methods described in Lin J H et al., Science 318:944 (2007). After treatment with the corresponding agents for the indicated time, Xbp-1 mRNA splicing was determined by RT-PCR. Unspliced (u) and spliced (s) Xbp1-mRNA products are indicated and serve as a measure of UPR activation through Ire1.
Exemplary compounds were assayed for their effect on UPR. Results are set forth in FIGS. 18-19 and in the table below.

[3] = biological target: T2, yIre1 (Saccharomyces cerevisiae, UniProt P32361); test: RNA cleavage-based yIre1 activation assay; type: biochemical, yeast; set-up: unit not given here; conditions: 3 μM yIre1, stem loop RNA, 15 μM effector
T2 construct: GST (N); made in house; host or cells: E. coli BL21 CodonPlus (RIPL)
T2 sequence (P32361 with tags, fused parts or gaps limits assumed): T1 sequence (P32361 with tags, fused parts or gaps)
Method: The RNase Cleavage Assay.
as §1
RNA cleavage can be used to assess yIre1 activation as shown by FIG. 20 and the table below (3 μM yIre1, stem loop RNA, 15 μM effector): […]

[4] = system: Ire1; test: Summary statement of Ire1 activation or inhibition (assay not specified)
[5] = system: XBP1-GFP reporter in Hek293-FT cells; test: FACS on Hek293-FT cells transfected with XBP1-GFP reporter; type: cell-based; conditions: treated for 24 hrs
Method: Exemplary compounds were assayed and the results are set froth in the table below.

increase of specific RNase activity by co-factor ([1]; HP21 substrate, Ire1KR, Ire1KR24, Ire1KR32 (FIG. 1D)) | RNA cleavage (yIre1 activation) [3] | Compound | effect of EDTA (chelation of magnesium) on RNase activity of Ire1KR32 stimulated by the substance ([1]; FIG. 3F) | % splicing mRNA XBP-I Average ([2]; Tm 0.3 ug/ml + compound 2 μM) | % splicing mRNA XBP-I Average ([2]; compound 2 μM) | % splicing mRNA XBP-I Average ([2]; compound 10 μM) | inhibition of Ire1 [4] | % fold induction to Control ([5]; Tm 0.3 ug/ml + compound 2 uM) | Mean fluorescence ([5]; Tm 0.3 ug/ml + compound 2 uM) | % fold induction to Control ([5]; compound 2 uM) | Mean fluorescence ([5]; compound 2 uM) | in vivo activation of Ire1 [2] | activation of Ire1 [4] | % splicing mRNA XBP-I Average ([2]; Tm alone) | % fold induction to Control ([5]; Tm alone) | Mean fluorescence ([5]; Tm alone)
– | 0.005304 | N#CCc1ccc(Nc2nc(Nc3cc(C4CC4)n[nH]3)c3ccccc3n2)cc1 [APY65] | – | 29% | 22% | 51% | – | – | – | – | – | significant in vivo activation | significant activation | – | – | –
– | 0.002028 | N#CCc1ccc(Nc2nc(Nc3cc(C4CCCC4)n[nH]3)c3ccccc3n2)cc1 [APY78] | – | 11% | 11% | 27% | – | – | – | – | – | – | – | – | – | –
– | 0.000626 | N#CCc1ccc(Nc2nc(Nc3cc(C4CCCCC4)n[nH]3)c3ccccc3n2)cc1 [APY79] | – | – | – | – | – | – | – | – | – | – | – | – | – | –
– | 0.002172 | N#CCc1ccc(Nc2nc(Nc3cc(C4CCC4)n[nH]3)c3ccccc3n2)cc1 [APY82] | – | 27% | 29% | 27% | – | – | – | – | – | significant in vivo activation | – | – | – | –
– | 0.003287 | Cc1ccc(-c2cc(Nc3nc(Nc4ccc(CC#N)cc4)nc4ccccc34)[nH]n2)s1 [APY85] | – | 13% | 15% | 14% | – | – | – | – | – | – | significant activation | – | – | –

Second part, the compound before the results:

Compound | increase of specific RNase activity by co-factor ([1]; HP21 substrate, Ire1KR, Ire1KR24, Ire1KR32 (FIG. 1D)) | RNA cleavage (yIre1 activation) [3] | effect of EDTA (chelation of magnesium) on RNase activity of Ire1KR32 stimulated by the substance ([1]; FIG. 3F) | % splicing mRNA XBP-I Average ([2]; Tm 0.3 ug/ml + compound 2 μM) | % splicing mRNA XBP-I Average ([2]; compound 2 μM) | % splicing mRNA XBP-I Average ([2]; compound 10 μM) | inhibition of Ire1 [4] | % fold induction to Control ([5]; Tm 0.3 ug/ml + compound 2 uM) | Mean fluorescence ([5]; Tm 0.3 ug/ml + compound 2 uM) | % fold induction to Control ([5]; compound 2 uM) | Mean fluorescence ([5]; compound 2 uM) | in vivo activation of Ire1 [2] | activation of Ire1 [4] | % splicing mRNA XBP-I Average ([2]; Tm alone) | % fold induction to Control ([5]; Tm alone) | Mean fluorescence ([5]; Tm alone)
Nc1ncnc2c1ncn2[C@@H]1O[C@H](COP(=O)(O)OP(=O)(O)O)[C@@H](O)[C@H]1O [ADP, reference compound] | two orders of magnitude | – | decreased by greater than an order of magnitude | – | – | – | – | – | – | – | – | – | – | – | – | –
OCCc1ccc(Nc2nccc(Nc3cc(C4CCCCC4)n[nH]3)n2)cc1 [APY33] | – | 0.00232 | – | 8% | 8% | 18% | significant inhibition | 49% | 3613 | 16% | 2811 | – | – | – | – | –
N#CCc1ccc(Nc2nccc(Nc3cc(C4CCCCC4)n[nH]3)n2)cc1 [APY34] | – | 0.0014 | – | 7% | 12% | 34% | – | 78% | 4318 | 17% | 2836 | – | – | – | – | –
CC(=O)Nc1ccc(Nc2nccc(Nc3cc(C4CCCCC4)n[nH]3)n2)cc1 [APY36] | – | 0.000897 | – | 16% | 10% | 19% | – | – | – | – | – | – | – | – | – | –
N#CCc1ccc(Nc2nccc(Nc3cc(C4CCCC4)n[nH]3)n2)cc1 [APY67] | – | 0.006034 | – | 21% | 20% | 66% | – | −6% | 2289 | −4% | 2326 | – | significant activation | – | – | –
Cc1cc(Nc2cc(C3CC3)n[nH]2)nc(Nc2ccc(CC#N)cc2)n1 [APY69] | – | 0.06355 | – | 36% | 23% | 40% | – | 16% | 2805 | 18% | 2864 | significant in vivo activation | significant activation | – | – | –
CC(=O)Nc1ccc(Nc2nccc(Nc3cc(C4CCCC4)n[nH]3)n2)cc1 [APY75] | – | 0.00175 | – | 44% | 9% | 17% | – | – | – | – | – | – | – | – | – | –
OCCc1ccc(Nc2nccc(Nc3cc(C4CCCC4)n[nH]3)n2)cc1 [APY76] | – | 0.03994 | – | 11% | 23% | 39% | – | – | – | – | – | significant in vivo activation | significant activation | – | – | –
N#CCc1ccc(Nc2nccc(Nc3cc(C4CCC4)n[nH]3)n2)cc1 [APY77] | – | 0.006479 | – | 37% | 21% | 37% | – | 9% | 2648 | 6% | 2570 | – | significant activation | – | – | –
Cc1cc(Nc2cc(C3CCCC3)n[nH]2)nc(Nc2ccc(CC#N)cc2)n1 [APY80] | – | 0.001022 | – | 9% | 12% | 28% | significant inhibition | – | – | – | – | – | – | – | – | –
Cc1cc(Nc2cc(C3CCC3)n[nH]2)nc(Nc2ccc(CC#N)cc2)n1 [APY83] | – | 0.02693 | – | 29% | 21% | 55% | – | – | – | – | – | significant in vivo activation | significant activation | – | – | –
N#CCc1ccc(Nc2nccc(Nc3cc(-c4cccs4)n[nH]3)n2)cc1 [APY84] | – | 0.004672 | – | 12% | 21% | 60% | significant inhibition | – | – | – | – | significant in vivo activation | – | – | – | –
tunicamycin [Tm, reference compound] | – | – | – | – | – | – | – | – | – | – | – | – | – | 78% | 59% | 3869
